# Legend:
# [1] = biological target: T1, histamine-H2 receptors (Cavia porcellus, UniProt P47747); assay: pA2-values in vitro on isolated guinea-pigs' atrium (H2-antagonistic activity); parameters: species or system guinea-pig
# T1 construct: in vitro on isolated guinea-pigs' atrium; from tissue; host or cells: isolated guinea-pig atrium (right atrium per b6)
# Description: J. Pharmacol. Chemother. ", 27, 427 (1966) and Black et al, "Nature", 236, 385 (1971)].
# One recognized method of determining the H2 -antagonistic activity is the determination of the pA2 -values in vitro on isolated guinea-pigs' atrium (see Ariens, Molecular Pharmacology, Volume 1, Academic Press, New York, 1964).
# [2] = therapeutic use; several daily doses of tablets required; cited from earlier work
# T1 sequence (P47747 whole entry): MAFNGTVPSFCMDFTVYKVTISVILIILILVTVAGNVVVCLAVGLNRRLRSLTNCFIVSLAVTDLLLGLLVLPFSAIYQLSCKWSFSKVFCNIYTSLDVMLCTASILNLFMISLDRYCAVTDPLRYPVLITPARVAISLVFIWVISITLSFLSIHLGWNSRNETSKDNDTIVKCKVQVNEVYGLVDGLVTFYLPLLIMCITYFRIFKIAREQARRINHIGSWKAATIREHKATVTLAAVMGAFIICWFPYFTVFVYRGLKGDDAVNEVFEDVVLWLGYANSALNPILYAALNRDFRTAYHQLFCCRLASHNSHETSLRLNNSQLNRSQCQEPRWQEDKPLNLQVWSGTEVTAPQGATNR
Kb [1] [nM],Structure (SMILES),half life [2]
7.24,[O-][s+]1nc(NCC(O)COc2cccc(CN3CCCCC3)c2)c(NCC(O)COc2cccc(CN3CCCCC3)c2)n1 (stereo not drawn) [Example 4],–
–,CNC(=C[N+](=O)[O-])NCCSCc1ccc(CN(C)C)o1 [ranitidine],relatively short half life
–,CN/C(=N/CCSCc1nc[nH]c1C)NC#N [Cimetidine],relatively short half life
